Consider four molecules from ChEMBL document CHEMBL5550210, “Discovery of Novel α,β-Unsaturated Amide Derivatives as Candidate Antifungals to Overcome Fungal Resistance” (J Med Chem, 2024).

≈ marks a conversion by molar mass, not a printed value.

The subject of one assay is Aspergillus fumigatus. Put plainly: Antifungal activity against Aspergillus fumigatus CGMCC 3.7795 assessed as inhibition of fungal growth by CLSI protocol based microdilution method. The format is functional.
Details: not given
By MIC is commonly meant the lowest concentration that inhibits growth of the organism. Consider `CNC(=O)/C=C/c1ccc(COC(Cn2ccnc2)c2ccc(Cl)cc2Cl)cc1` (configuration not stated), for which the MIC was 8 µg/mL (≈ 18.6 µM).
On the same count and under the same terms, the value for `O=C(/C=C/c1ccc(COC(Cn2ccnc2)c2ccc(Cl)cc2Cl)cc1)Nc1ccc(C(F)(F)F)cc1` (configuration not stated) was 32 µg/mL (≈ 57.1 µM).
Consider `O=C(/C=C/c1ccc(COC(Cn2ccnc2)c2ccc(Cl)cc2Cl)cc1)NC1CC1` (configuration not stated), for which the minimal inhibitory concentration (MIC) turned out to be 2 µg/mL (≈ 4.38 µM).
Same read-out and setting: the value for `Cc1ccccc1NC(=O)/C=C/c1ccc(COC(Cn2ccnc2)c2ccc(Cl)cc2Cl)cc1` (configuration not stated) was 2 µg/mL (≈ 3.95 µM).

A further assay deals with Candida albicans. Put plainly: Antifungal activity against Candida albicans SC5314 assessed as inhibition of fungal growth by CLSI protocol based microdilution method. The format is functional.
Details: not given
For orientation: In broth dilution the organism is exposed to a series of concentrations in liquid medium.
In the case of `CNC(=O)/C=C/c1ccc(COC(Cn2ccnc2)c2ccc(Cl)cc2Cl)cc1` (configuration not stated), the MIC was found to be 0.125 µg/mL (≈ 0.29 µM).
Still for that read-out and setting: the value for `O=C(/C=C/c1ccc(COC(Cn2ccnc2)c2ccc(Cl)cc2Cl)cc1)Nc1ccc(C(F)(F)F)cc1` (configuration not stated) was 0.03 µg/mL (≈ 0.0535 µM); that for `O=C(/C=C/c1ccc(COC(Cn2ccnc2)c2ccc(Cl)cc2Cl)cc1)NC1CC1` (configuration not stated) was 0.125 µg/mL (≈ 0.274 µM).
On the same count and under the same terms, the value for `Cc1ccccc1NC(=O)/C=C/c1ccc(COC(Cn2ccnc2)c2ccc(Cl)cc2Cl)cc1` (configuration not stated) was 0.03 µg/mL (≈ 0.0592 µM).

For another assay, the system named is Candida albicans. Put plainly: Antifungal activity against Candida albicans CPCC400616 assessed as inhibition of fungal growth by CLSI protocol based microdilution method. The class given is functional.
Details: not given
Take `CNC(=O)/C=C/c1ccc(COC(Cn2ccnc2)c2ccc(Cl)cc2Cl)cc1` (configuration not stated): the MIC stood at 0.25 µg/mL (≈ 0.581 µM).
Still for that read-out and setting: the value for `O=C(/C=C/c1ccc(COC(Cn2ccnc2)c2ccc(Cl)cc2Cl)cc1)Nc1ccc(C(F)(F)F)cc1` (configuration not stated) was 0.03 µg/mL (≈ 0.0535 µM).
For the molecule `O=C(/C=C/c1ccc(COC(Cn2ccnc2)c2ccc(Cl)cc2Cl)cc1)NC1CC1` (configuration not stated), the MIC was found to be 0.25 µg/mL (≈ 0.548 µM).
Consider `Cc1ccccc1NC(=O)/C=C/c1ccc(COC(Cn2ccnc2)c2ccc(Cl)cc2Cl)cc1` (configuration not stated), for which the MIC is 0.125 µg/mL (≈ 0.247 µM).

The subject of a further assay is Candida albicans. Put plainly: Antifungal activity against fluconazole-resistant Candida albicans 901 assessed as inhibition of fungal growth by CLSI based microdilution method. The class given is functional.
Details: not given
Regarding `CNC(=O)/C=C/c1ccc(COC(Cn2ccnc2)c2ccc(Cl)cc2Cl)cc1` (configuration not stated), the MIC was 16 µg/mL (≈ 37.2 µM).
The same measure, in the same setting: the value for `O=C(/C=C/c1ccc(COC(Cn2ccnc2)c2ccc(Cl)cc2Cl)cc1)Nc1ccc(C(F)(F)F)cc1` (configuration not stated) was 16 µg/mL (≈ 28.6 µM); that for `O=C(/C=C/c1ccc(COC(Cn2ccnc2)c2ccc(Cl)cc2Cl)cc1)NC1CC1` (configuration not stated) was 2 µg/mL (≈ 4.38 µM); that for `Cc1ccccc1NC(=O)/C=C/c1ccc(COC(Cn2ccnc2)c2ccc(Cl)cc2Cl)cc1` (configuration not stated) was 4 µg/mL (≈ 7.9 µM).

The subject of another assay is Cryptococcus neoformans. Put plainly: Antifungal activity against Cryptococcus neoformans CGMCC2.3161 assessed as inhibition of fungal growth by CLSI protocol based microdilution method. The format is functional.
Details: not given
Take `CNC(=O)/C=C/c1ccc(COC(Cn2ccnc2)c2ccc(Cl)cc2Cl)cc1` (configuration not stated): the minimal inhibitory concentration (MIC) is 8 µg/mL (≈ 18.6 µM).
The same measure, in the same setting: the value for `O=C(/C=C/c1ccc(COC(Cn2ccnc2)c2ccc(Cl)cc2Cl)cc1)Nc1ccc(C(F)(F)F)cc1` (configuration not stated) was 2 µg/mL (≈ 3.57 µM).
On the same count and under the same terms, the value for `O=C(/C=C/c1ccc(COC(Cn2ccnc2)c2ccc(Cl)cc2Cl)cc1)NC1CC1` (configuration not stated) was 16 µg/mL (≈ 35.1 µM).
Consider `Cc1ccccc1NC(=O)/C=C/c1ccc(COC(Cn2ccnc2)c2ccc(Cl)cc2Cl)cc1` (configuration not stated), for which the MIC was determined as 2 µg/mL (≈ 3.95 µM).

A further assay has as its system Nakaseomyces glabratus. Nature of the assay: Antifungal activity against Candida glabrata assessed as inhibition of fungal growth by CLSI protocol based microdilution method. The class given is functional.
Details: not given
With `CNC(=O)/C=C/c1ccc(COC(Cn2ccnc2)c2ccc(Cl)cc2Cl)cc1` (configuration not stated), the MIC was determined as 32 µg/mL (≈ 74.4 µM).
Still for that read-out and setting: the value for `O=C(/C=C/c1ccc(COC(Cn2ccnc2)c2ccc(Cl)cc2Cl)cc1)Nc1ccc(C(F)(F)F)cc1` (configuration not stated) was 32 µg/mL (≈ 57.1 µM).
Same read-out and setting: the value for `O=C(/C=C/c1ccc(COC(Cn2ccnc2)c2ccc(Cl)cc2Cl)cc1)NC1CC1` (configuration not stated) was 64 µg/mL (≈ 140 µM); that for `Cc1ccccc1NC(=O)/C=C/c1ccc(COC(Cn2ccnc2)c2ccc(Cl)cc2Cl)cc1` (configuration not stated) was 64 µg/mL (≈ 126 µM).

Another assay relates to Candida tropicalis. Put plainly: Antifungal activity against Candida tropicalis CGMCC 2.3739 assessed as inhibition of fungal growth by CLSI protocol based microdilution method. The class given is functional.
Details: not given
As to `CNC(=O)/C=C/c1ccc(COC(Cn2ccnc2)c2ccc(Cl)cc2Cl)cc1` (configuration not stated), the MIC amounted to 8 µg/mL (≈ 18.6 µM).
Still for that read-out and setting: the value for `O=C(/C=C/c1ccc(COC(Cn2ccnc2)c2ccc(Cl)cc2Cl)cc1)Nc1ccc(C(F)(F)F)cc1` (configuration not stated) was 64 µg/mL (≈ 114 µM); that for `O=C(/C=C/c1ccc(COC(Cn2ccnc2)c2ccc(Cl)cc2Cl)cc1)NC1CC1` (configuration not stated) was 4 µg/mL (≈ 8.76 µM).
For `Cc1ccccc1NC(=O)/C=C/c1ccc(COC(Cn2ccnc2)c2ccc(Cl)cc2Cl)cc1` (configuration not stated), the minimal inhibitory concentration (MIC) is 16 µg/mL (≈ 31.6 µM).

The next assay relates to Candida parapsilosis. Put plainly: Antifungal activity against Candida parapsilosis ATCC 22019 assessed as inhibition of fungal growth by CLSI protocol based microdilution method. The format is functional. The following applies: Lodderomyces parapsilosis.
Turning to `CNC(=O)/C=C/c1ccc(COC(Cn2ccnc2)c2ccc(Cl)cc2Cl)cc1` (configuration not stated), the MIC came out at 4 µg/mL (≈ 9.3 µM).
On the same count and under the same terms, the value for `O=C(/C=C/c1ccc(COC(Cn2ccnc2)c2ccc(Cl)cc2Cl)cc1)Nc1ccc(C(F)(F)F)cc1` (configuration not stated) was 0.5 µg/mL (≈ 0.892 µM); that for `O=C(/C=C/c1ccc(COC(Cn2ccnc2)c2ccc(Cl)cc2Cl)cc1)NC1CC1` (configuration not stated) was 1 µg/mL (≈ 2.19 µM).
On the same count and under the same terms, the value for `Cc1ccccc1NC(=O)/C=C/c1ccc(COC(Cn2ccnc2)c2ccc(Cl)cc2Cl)cc1` (configuration not stated) was 0.5 µg/mL (≈ 0.987 µM).

The test system of the next assay is Candida albicans. Nature of the assay: Antifungal activity against fluconazole-resistant Candida albicans 904 assessed as inhibition of fungal growth by CLSI based microdilution method. The format is functional.
Details: not given
Take `CNC(=O)/C=C/c1ccc(COC(Cn2ccnc2)c2ccc(Cl)cc2Cl)cc1` (configuration not stated): the MIC worked out at 16 µg/mL (≈ 37.2 µM).
On the same count and under the same terms, the value for `O=C(/C=C/c1ccc(COC(Cn2ccnc2)c2ccc(Cl)cc2Cl)cc1)Nc1ccc(C(F)(F)F)cc1` (configuration not stated) was 8 µg/mL (≈ 14.3 µM); that for `O=C(/C=C/c1ccc(COC(Cn2ccnc2)c2ccc(Cl)cc2Cl)cc1)NC1CC1` (configuration not stated) was 4 µg/mL (≈ 8.76 µM).
On to `Cc1ccccc1NC(=O)/C=C/c1ccc(COC(Cn2ccnc2)c2ccc(Cl)cc2Cl)cc1` (configuration not stated), for which the MIC amounted to 2 µg/mL (≈ 3.95 µM).

In another assay the test system is Pichia kudriavzevii. Nature of the assay: Antifungal activity against Candida krusei AS 2.1045 assessed as inhibition of fungal growth by CLSI protocol based microdilution method. The format is functional.
Details: not given
On to `CNC(=O)/C=C/c1ccc(COC(Cn2ccnc2)c2ccc(Cl)cc2Cl)cc1` (configuration not stated), for which the MIC was 16 µg/mL (≈ 37.2 µM).
The same measure, in the same setting: the value for `O=C(/C=C/c1ccc(COC(Cn2ccnc2)c2ccc(Cl)cc2Cl)cc1)Nc1ccc(C(F)(F)F)cc1` (configuration not stated) was 64 µg/mL (≈ 114 µM).
Turning to `O=C(/C=C/c1ccc(COC(Cn2ccnc2)c2ccc(Cl)cc2Cl)cc1)NC1CC1` (configuration not stated), the MIC worked out at 64 µg/mL (≈ 140 µM).
Still for that read-out and setting: the value for `Cc1ccccc1NC(=O)/C=C/c1ccc(COC(Cn2ccnc2)c2ccc(Cl)cc2Cl)cc1` (configuration not stated) was 16 µg/mL (≈ 31.6 µM).

A further assay deals with Candida albicans. Nature of the assay: Antifungal activity against fluconazole-resistant Candida albicans CaR assessed as inhibition of fungal growth by CLSI based microdilution method. The format is functional.
Details: not given
For the molecule `CNC(=O)/C=C/c1ccc(COC(Cn2ccnc2)c2ccc(Cl)cc2Cl)cc1` (configuration not stated), the MIC was 128 µg/mL (≈ 297 µM).
Same read-out and setting: the value for `O=C(/C=C/c1ccc(COC(Cn2ccnc2)c2ccc(Cl)cc2Cl)cc1)Nc1ccc(C(F)(F)F)cc1` (configuration not stated) was 64 µg/mL (≈ 114 µM); that for `O=C(/C=C/c1ccc(COC(Cn2ccnc2)c2ccc(Cl)cc2Cl)cc1)NC1CC1` (configuration not stated) was 128 µg/mL (≈ 280 µM); that for `Cc1ccccc1NC(=O)/C=C/c1ccc(COC(Cn2ccnc2)c2ccc(Cl)cc2Cl)cc1` (configuration not stated) was 16 µg/mL (≈ 31.6 µM).

Another assay has as its system Candida albicans. Nature of the assay: Antifungal activity against fluconazole-resistant Candida albicans 632 assessed as inhibition of fungal growth by CLSI based microdilution method.
Details: not given
The format is functional.
In the case of `CNC(=O)/C=C/c1ccc(COC(Cn2ccnc2)c2ccc(Cl)cc2Cl)cc1` (configuration not stated), the MIC was determined as 4 µg/mL (≈ 9.3 µM).
On to `O=C(/C=C/c1ccc(COC(Cn2ccnc2)c2ccc(Cl)cc2Cl)cc1)Nc1ccc(C(F)(F)F)cc1` (configuration not stated), for which the minimum inhibitory concentration (MIC) turned out to be 2 µg/mL (≈ 3.57 µM).
On the same count and under the same terms, the value for `O=C(/C=C/c1ccc(COC(Cn2ccnc2)c2ccc(Cl)cc2Cl)cc1)NC1CC1` (configuration not stated) was 1 µg/mL (≈ 2.19 µM).
Still for that read-out and setting: the value for `Cc1ccccc1NC(=O)/C=C/c1ccc(COC(Cn2ccnc2)c2ccc(Cl)cc2Cl)cc1` (configuration not stated) was 2 µg/mL (≈ 3.95 µM).

The test system of the next assay is Candida albicans. Nature of the assay: Antifungal activity against fluconazole-resistant Candida albicans 17 assessed as inhibition of fungal growth by CLSI based microdilution method. The format is functional.
Details: not given
Consider `CNC(=O)/C=C/c1ccc(COC(Cn2ccnc2)c2ccc(Cl)cc2Cl)cc1` (configuration not stated), for which the MIC amounted to 128 µg/mL (≈ 297 µM).
Still for that read-out and setting: the value for `O=C(/C=C/c1ccc(COC(Cn2ccnc2)c2ccc(Cl)cc2Cl)cc1)Nc1ccc(C(F)(F)F)cc1` (configuration not stated) was 128 µg/mL (≈ 228 µM); that for `O=C(/C=C/c1ccc(COC(Cn2ccnc2)c2ccc(Cl)cc2Cl)cc1)NC1CC1` (configuration not stated) was 32 µg/mL (≈ 70.1 µM); that for `Cc1ccccc1NC(=O)/C=C/c1ccc(COC(Cn2ccnc2)c2ccc(Cl)cc2Cl)cc1` (configuration not stated) was 128 µg/mL (≈ 253 µM).
